Test results as given in ChEMBL document CHEMBL1150682, “Modiolides A and B, two new 10-membered macrolides from a marine-derived fungus” (2003).
Converted amounts (≈) assume the structure as drawn.

What was measured:
Neurospora crassa = assay: Antimicrobial activity against Neurospora crassa; type: functional
Micrococcus luteus = assay: Antimicrobial activity against Micrococcus luteus; type: functional

Row | SMILES | MIC (Neurospora crassa) [µg/mL] | MIC (Micrococcus luteus) [µg/mL]
1 | C[C@@H]1C[C@H](O)/C=C/[C@@H](O)/C=C\C(=O)O1 [MODIOLIDE A] | 33.3 (≈ 168 µM) | 16.7 (≈ 84.3 µM)
2 | C[C@@H]1CC/C=C/[C@@H](O)/C=C\C(=O)O1 [MODIOLIDE B] | 33.3 (≈ 183 µM) | 16.7 (≈ 91.6 µM)
